# Data: US8796292B2, “Selective antibacterials for clostridium difficile infections” (GLSynthesis Inc., priority 2009, dated 2014)
# Like-named read-outs stand apart in the source and are kept apart here.
# Legend:
# Assay in all cases: agar dilution MIC assay of anaerobic bacteria
# L. casei = type: cell-based, Lactobacillus casei; conditions: Lacticaseibacillus casei, Micromyx Number 1722, Table 1
# Protocol: (§1) Each compound was assayed against a panel of anaerobic bacteria in culture, consisting of Gram-positive organisms, such as Lactobacilli, Bifidobacteria, Clostridium spp., and Gram-negative bacteria, such as […] fragilis spp., according to guidelines of the Clinical and Laboratory Standards Institute (CLSI document M11-A7, CLSI, Wayne, Pa., 2007). […] One tenth mL of diluted bacteria containing 500-1000 colony-forming units (CFU) was plated and spread, and the plates incubated at 37° C. for 24-48 hours. MIC (minimum inhibitory concentration) is equivalent to the lowest concentration in μg/ml at which growth, i.e., colony formation, is not observed. […] Bacteria were assayed using a reference agar dilution method. Drug dilutions and drug-supplemented agar plates were prepared manually. The test organisms were maintained frozen at −80° C. The isolates were sub-cultured on Supplemented Brucella Agar (SBA) plates in a Bactron II anaerobic chamber and incubated for 48 hours at 35-36° C. in the Bactron II anaerobe chamber. Following inoculation, the drug-supplemented plates were incubated at 35° C. for 48 hours in the anaerobic environment (5% hydrogen, 5% carbon dioxide, 90% nitrogen) of the Bactron II. The MIC in μg/ml was read per Clinical and Laboratory Standards Institute guidelines.
# Ba. fragilis = type: cell-based; conditions: Bacteroides fragilis, Micromyx Number 0123 (ATCC strain)
# Protocol: as §1
# L. acidophilus = type: cell-based; conditions: Lactobacillus acidophilus, Micromyx Number 0681, Table 1
# Protocol: as §1
# Bi. brevi = type: cell-based, Bifidobacterium brevi; conditions: Bifidobacterium; Bi. brevi, Micromyx Number 3967, Table 1
# Protocol: as §1
# Bi. longum = type: cell-based, Bifidobacterium longum; conditions: Bifidobacterium longum; Bi. longum, Micromyx Number 3968, Table 1; read-out: MIC
# Protocol: as §1
# E. lentum = type: cell-based, Eubacterium lentum; conditions: Eggerthella lenta; E. lentum, Micromyx Number 1274, Table 1; read-out: MIC
# Protocol: as §1
# C. difficile = type: cell-based, Clostridium difficile; conditions: for MIC: Clostridioides difficile, read-out: MIC
# Protocol: as §1
# [1] = Ba. fragilis, Gram negative, Table 1
# [2] = C. difficile, Micromyx Number 1209, Table 1
# [3] = C. difficile, Micromyx Number 3579, Table 1
# [4] = C. difficile, Micromyx Number 3580, Table 1
# [5] = C. difficile, Micromyx Number 3581, Table 1
# [6] = C. difficile, Micromyx Number 3582, Table 1
# [7] = C. difficile, Micromyx Number 3584, Table 1
# [8] = C. difficile, Micromyx Number 3585, Table 1
# [9] = C. difficile, Micromyx Number 3586, Table 1
# [10] = C. difficile, Micromyx Number 3587, Table 1
# [11] = C. difficile, Micromyx Number 3588, Table 1
# [12] = C. difficile, Micromyx Number 3589, Table 1
# [13] = C. difficile, Micromyx Number 3590, Table 1
# [14] = C. difficile, Micromyx Number 3591, Table 1
# [15] = C. difficile, Micromyx Number 3593, Table 1
# [16] = C. difficile, Micromyx Number 3594, Table 1
# [17] = C. difficile, Micromyx Number 3595, Table 1
# [18] = C. difficile, Micromyx Number 4381 (ATCC strain), Table 1
MIC (L. casei) [µg/mL],MIC (Ba. fragilis; [1]) [µg/mL],MIC (L. acidophilus) [µg/mL],MIC (Bi. brevi) [µg/mL],MIC (Bi. longum) [µg/mL],MIC (E. lentum) [µg/mL],MIC (C. difficile; [2]) [µg/mL],MIC (C. difficile; [3]) [µg/mL],MIC (C. difficile; [4]) [µg/mL],MIC (C. difficile; [5]) [µg/mL],MIC (C. difficile; [6]) [µg/mL],MIC (C. difficile; [7]) [µg/mL],MIC (C. difficile; [8]) [µg/mL],MIC (C. difficile; [9]) [µg/mL],MIC (C. difficile; [10]) [µg/mL],MIC (C. difficile; [11]) [µg/mL],MIC (C. difficile; [12]) [µg/mL],MIC (C. difficile; [13]) [µg/mL],MIC (C. difficile; [14]) [µg/mL],MIC (C. difficile; [15]) [µg/mL],SMILES,also measured
32,> 32,16,> 32,> 32,> 32,16,16,8,8,> 32,8,16,8,8,4,16,8,8,16,CCc1cc(Nc2nc3ncn(CCCCCOC)c3c(=O)[nH]2)ccc1C [Compound 315C],MIC (C. difficile; [16]): 8 µg/mL; MIC (C. difficile; [17]): 8 µg/mL; MIC (C. difficile; [18]): 8 µg/mL
> 32,> 32,8,32,> 32,32,4,4,4,4,16,2,4,2,4,1,4,4,4,4,CC(C)C(=O)OCCCCCn1cnc2nc(NCc3ccc(Cl)c(Cl)c3)[nH]c(=O)c21 [Compound 332E],"MIC (Ba. fragilis; B. fragilis, Table 2): > 32 µg/mL; MIC (C. difficile; C. diff., Micromyx Number 3579, Table 2): 4 µg/mL; MIC (C. difficile; C. diff., Micromyx Number 3580, Table 2): 4 µg/mL; MIC (C. difficile; C. diff., Micromyx Number 3581, Table 2): 2 µg/mL; MIC (C. difficile; C. diff., Micromyx Number 3582 (ATCC strain), Table 2): 4 µg/mL; MIC (C. difficile; [16]): 4 µg/mL; MIC (C. difficile; [17]): 4 µg/mL; MIC (C. difficile; [18]): 2 µg/mL; potency and selectivity against C. diff. versus other Gram-positive anaerobes (in words) (C. difficile; summary of MIC panels, Tables 1 and 3): most potent and selective"
